This is an account of results in US11685732B2, “MYST family histone acetyltransferase inhibitors” (Epizyme, Inc., priority 2017, dated 2023).

One experiment addresses KAT-5 (Homo sapiens (Human), UniProt Q92993). Briefly: KAT-5 biochemical inhibition assay (SAMDI mass spectrometry). The gist of the method: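 KAT-5 at 9 nM final was preincubated with serially diluted compound (2% DMSO) in 50 mM Tris pH 8.0 with 1 mM DTT. Reaction ran with 1 μM peptide substrate and 0.5 μM acetyl-CoA for 90 min at 25° C, was quenched with 0.5% formic acid, and was read by SAMDI-TOF mass spectrometry.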

In a further experiment the target is KAT-8 (Homo sapiens (Human), UniProt Q9H7Z6). The experiment in a line: KAT-8 biochemical inhibition assay (SAMDI mass spectrometry). The gist of the method:
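Compounds in 2% DMSO pre-incubated with 12.5 nM enzyme in 50 mM Tris pH 8.0 with Tween20, gelatin and 1 mM DTT. Then 1 μM peptide and 5 μM acetyl-CoA were added, 90 min at 25 °C; formic acid stop and SAMDI-TOF mass spectrometry for IC50.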

Another experiment concerns the target KAT-7 (Homo sapiens (Human), UniProt O95251). The experiment in a line: KAT-7 biochemical inhibition assay (SAMDI mass spectrometry). The gist of the method:
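KAT-7 (6 nM) was pre-incubated with serially diluted compound (2% DMSO) in Tris pH 8.0 with DTT. Reaction with 1 μM peptide and 2 μM acetyl-CoA ran 120 min at 25 °C and was stopped with 0.5% formic acid. Acetylation was read by SAMDI-TOF mass spectrometry to give IC50.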

The next experiment has as its target KAT-6A (Homo sapiens (Human), UniProt Q92794). The experiment in a line: KAT-6A biochemical inhibition assay (SAMDI mass spectrometry). The gist of the method: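 Enzyme (12.5 nM final) pre-incubated with serially diluted compounds (2% DMSO final) in 50 mM Tris pH 8.0 with Tween20, gelatin and 1 mM DTT. Reaction started with 1 μM peptide substrate and 1 μM acetyl-CoA, run 90 min at 25 °C, quenched with 0.5% formic acid, read by SAMDI-TOF mass spectrometry; IC50 derived.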

KAT-8, sequence (Q9H7Z6 other isoform, or with tags, fused parts or gaps): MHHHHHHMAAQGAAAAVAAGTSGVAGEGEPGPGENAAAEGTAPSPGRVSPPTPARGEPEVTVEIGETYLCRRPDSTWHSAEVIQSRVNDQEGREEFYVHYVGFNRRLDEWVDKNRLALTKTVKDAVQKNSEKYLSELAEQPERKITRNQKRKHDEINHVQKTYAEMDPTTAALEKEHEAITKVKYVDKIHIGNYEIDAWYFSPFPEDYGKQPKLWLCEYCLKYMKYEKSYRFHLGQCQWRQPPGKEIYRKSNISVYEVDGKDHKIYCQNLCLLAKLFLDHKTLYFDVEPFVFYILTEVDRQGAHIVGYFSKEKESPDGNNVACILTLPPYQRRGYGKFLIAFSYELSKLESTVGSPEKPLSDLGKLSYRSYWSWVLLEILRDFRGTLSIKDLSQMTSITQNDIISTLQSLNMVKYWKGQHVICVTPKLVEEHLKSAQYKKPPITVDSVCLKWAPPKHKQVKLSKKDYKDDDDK
KAT-5, sequence (Q92993 other isoform, or with tags, fused parts or gaps): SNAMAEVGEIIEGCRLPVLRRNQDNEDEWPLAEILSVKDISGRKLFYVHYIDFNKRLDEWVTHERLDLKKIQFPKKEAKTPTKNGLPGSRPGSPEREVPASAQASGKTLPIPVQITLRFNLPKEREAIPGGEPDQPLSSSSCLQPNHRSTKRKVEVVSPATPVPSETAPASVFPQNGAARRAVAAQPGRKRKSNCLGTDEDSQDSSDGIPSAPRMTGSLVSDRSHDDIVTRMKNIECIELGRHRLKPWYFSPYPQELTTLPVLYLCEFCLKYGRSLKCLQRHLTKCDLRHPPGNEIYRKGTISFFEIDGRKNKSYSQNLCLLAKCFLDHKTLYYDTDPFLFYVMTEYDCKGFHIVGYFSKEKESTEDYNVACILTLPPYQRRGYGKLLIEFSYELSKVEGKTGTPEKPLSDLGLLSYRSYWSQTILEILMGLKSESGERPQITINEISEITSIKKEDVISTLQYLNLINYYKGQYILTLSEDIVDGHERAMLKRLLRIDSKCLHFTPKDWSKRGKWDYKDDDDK
KAT-7, sequence (O95251 other isoform, or with tags, fused parts or gaps): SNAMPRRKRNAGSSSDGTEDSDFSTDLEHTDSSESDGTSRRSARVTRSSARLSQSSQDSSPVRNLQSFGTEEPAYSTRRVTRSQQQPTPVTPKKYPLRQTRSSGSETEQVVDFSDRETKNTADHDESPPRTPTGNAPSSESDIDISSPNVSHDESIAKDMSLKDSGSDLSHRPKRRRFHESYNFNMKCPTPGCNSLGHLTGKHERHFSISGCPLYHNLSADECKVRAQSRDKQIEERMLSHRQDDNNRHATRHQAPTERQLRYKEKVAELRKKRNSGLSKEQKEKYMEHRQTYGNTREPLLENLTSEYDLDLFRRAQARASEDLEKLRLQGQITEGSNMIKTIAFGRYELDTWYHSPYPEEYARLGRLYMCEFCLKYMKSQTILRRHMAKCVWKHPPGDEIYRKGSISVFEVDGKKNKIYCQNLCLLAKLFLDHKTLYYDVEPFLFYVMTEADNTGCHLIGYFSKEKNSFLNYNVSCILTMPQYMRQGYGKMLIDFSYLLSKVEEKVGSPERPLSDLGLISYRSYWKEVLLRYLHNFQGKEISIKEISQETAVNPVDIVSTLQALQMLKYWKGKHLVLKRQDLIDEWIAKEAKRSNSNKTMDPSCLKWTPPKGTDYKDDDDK
KAT-6A, sequence (Q92794 other isoform, or with tags, fused parts or gaps): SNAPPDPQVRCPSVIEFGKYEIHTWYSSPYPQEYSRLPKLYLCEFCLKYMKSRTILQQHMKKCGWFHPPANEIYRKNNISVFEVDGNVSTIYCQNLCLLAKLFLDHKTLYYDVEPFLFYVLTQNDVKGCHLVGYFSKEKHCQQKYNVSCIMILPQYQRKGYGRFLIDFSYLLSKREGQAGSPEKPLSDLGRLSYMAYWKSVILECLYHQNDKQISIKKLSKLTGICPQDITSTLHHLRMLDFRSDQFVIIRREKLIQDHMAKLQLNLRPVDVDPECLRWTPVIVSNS

Consider `COCCn1cnc(-c2cc(C)c(F)c(C(=O)NNS(=O)(=O)CC3CCCN(C(=O)OC(C)(C)C)C3)c2)c1` (stereo not drawn) [Compound I-135], for which the IC50 (as a rule, the concentration at which inhibition is half-maximal) on KAT-5 was below 10 µM; against KAT-8, above 100 µM; at KAT-7, 10 to 50 µM; on KAT-6A, 50 to 100 µM.
Taken in the same sequence, the figures for `COCCn1cnc(-c2cc(C)c(F)c(C(=O)NNS(=O)(=O)CC3CCCNC3)c2)c1` (stereo not drawn) [Compound I-136] were above 100 µM, above 100 µM, above 100 µM and above 100 µM.
The matching figures for `COCCn1cnc(-c2cc(C)c(F)c(C(=O)NNS(=O)(=O)CC3CCCN(C(=O)COC)C3)c2)c1` (stereo not drawn) [Compound I-137]: 10 to 50 µM, above 100 µM, 10 to 50 µM and 50 to 100 µM.
Regarding `COCCn1cnc(-c2cc(C)c(F)c(C(=O)NNS(=O)(=O)C3CCOCC3)c2)c1` [Compound I-138], the IC50 on KAT-5 is 10 to 50 µM; against KAT-8, above 100 µM; against KAT-7, 50 to 100 µM; on KAT-6A, above 100 µM.
Take `Cc1cc(-c2cn(C(C)C)cn2)cc(C(=O)NNS(=O)(=O)C2CCCCC2)c1F` [Compound I-139]: the IC50 is 10 to 50 µM against KAT-5, above 100 µM at KAT-8, below 10 µM on KAT-7 and above 100 µM at KAT-6A.
Take `COCCn1cnc(-c2cc(C)c(F)c(C(=O)NNS(=O)(=O)CC3CCOCC3)c2)c1` [Compound I-140]: the IC50 is 10 to 50 µM against KAT-5, above 100 µM against KAT-8, below 10 µM on KAT-7 and 10 to 50 µM at KAT-6A.
As to `COCC(=O)N1CCCC(CS(=O)(=O)NNC(=O)c2cc(-c3cn(C)cn3)cc(C)c2F)C1` (stereo not drawn) [Compound I-141], the IC50 was below 10 µM against KAT-5, above 100 µM against KAT-8, below 10 µM against KAT-7 and below 10 µM at KAT-6A.
Take `CC(=O)N1CCCC(CS(=O)(=O)NNC(=O)c2cc(-c3cn(C)cn3)cc(C)c2F)C1` (stereo not drawn) [Compound I-142]: the IC50 on KAT-5 was below 10 µM; against KAT-8, above 100 µM; at KAT-7, below 10 µM; against KAT-6A it was below 10 µM.
Consider `Cc1cc(-c2cn(CCO)cn2)cc(C(=O)NNS(=O)(=O)C2CCOCC2)c1F` [Compound I-143], for which the IC50 at KAT-5 was 50 to 100 µM; against KAT-8, above 100 µM; against KAT-7, 50 to 100 µM; at KAT-6A, 50 to 100 µM.
As to `Cn1cnc(-c2cc(Cl)c(Cl)c(C(=O)NNS(=O)(=O)CC3CCCCC3)c2)c1` [Compound I-144], the IC50 against KAT-5 is above 100 µM; against KAT-8, above 100 µM; against KAT-7, below 10 µM; on KAT-6A, above 100 µM.
For the compound `Cc1cc(-c2cn(C)cn2)cc(C(=O)NNS(=O)(=O)CC2CCCCC2)c1C` [Compound I-145], the IC50 was above 100 µM on KAT-5, above 100 µM against KAT-8, 10 to 50 µM against KAT-7 and above 100 µM against KAT-6A.
For `Cc1cc(-c2cn(CCO)cn2)cc(C(=O)NNS(=O)(=O)CC2CCOCC2)c1F` [Compound I-146], the IC50 at KAT-5 is 10 to 50 µM; against KAT-8 it was above 100 µM; against KAT-7, 10 to 50 µM; on KAT-6A it was 10 to 50 µM.
As for `Cc1cc(-c2cn(C)c(Cl)n2)cc(C(=O)NNS(=O)(=O)CC2CCCCC2)c1C` [Compound I-147], the IC50 against KAT-5, against KAT-8, on KAT-7 and on KAT-6A was above 100 µM throughout.
On to `COCC(=O)N1CCCC(CS(=O)(=O)NNC(=O)c2cc(-c3cn(CCO)cn3)cc(C)c2F)C1` (stereo not drawn) [Compound I-148], for which the IC50 against KAT-5, at KAT-8, on KAT-7 and on KAT-6A was 10 to 50 µM throughout.
With `Cn1cnc(-c2cc(F)c(F)c(C(=O)NNS(=O)(=O)C3CCOCC3)c2)c1` [Compound I-149], the IC50 against KAT-5 was 10 to 50 µM; at KAT-8, 10 to 50 µM; against KAT-7 it was below 10 µM; on KAT-6A it was 10 to 50 µM.
